Assay results published in patent publication US7342012B2, “Inhibitors of αLβ2 mediated cell adhesion” (Mitsubishi Tanabe Pharma Corporation, priority 1999, dated 2008).

For `CC1(C)COC(c2ccc(CC34CCCCN3C(=O)N(c3cc(Cl)cc(Cl)c3)C4=O)cc2)=N1` (stereo not drawn) [Example 159, 6-[4-(4,4-Dimethyl-4,5-dihydro-2-oxazolyl)benzyl]-8-(3,5-dichlorophenyl)-1,8-diazabicyclo[4.3.0]nonane-7,9-dione], the melting point was 87.2 °C. In the case of `N#Cc1ccc(CC23CN(C(=O)CCC(=O)O)CCN2C(=O)N(c2cc(Cl)nc(Cl)c2)C3=O)cc1` (stereo not drawn) [Example 163, 6-(4-Cyanobenzyl)-4-(3-carboxypropionyl)-8-(2,6-dichloro-4-pyridyl)-1,4,8-triazabicyclo[4.3.0]nonane-7,9-dione], the melting point is reported as 100.9 °C (dec.). `C[S+]([O-])c1ccc(CC23CCCN2C(=O)N(c2cc(Cl)cc(Cl)c2)C3=O)cc1` (stereo not drawn) [Example 189, 5-(4-Methylsulfinylbenzyl)-3-(3,5-dichlorophenyl)-1,3-diazabicyclo[3.3.0]octane-2,4-dione] showed a melting point of 71.2 °C. Molecule `CS(=O)(=O)c1ccc(CC23CCCN2C(=O)N(c2cc(Cl)cc(Cl)c2)C3=O)cc1` (stereo not drawn) [Example 190, 5-(4-Methylsulfonylbenzyl)-3-(3,5-dichlorophenyl)-1,3-diazabicyclo[3.3.0]octane-2,4-dione] has a melting point of 80.3 °C. `O=C1N(c2cc(Cl)nc(Cl)c2)C(=O)C2(Cc3ccc(O)cc3)CCCN12` (stereo not drawn) [Example 196, 5-(4-Hydroxybenzyl)-3-(2,6-dichloro-4-pyridyl)-1,3-diazabicyclo[3.3.0]octane-2,4-dione] showed a melting point of 164.9 °C. For `N#Cc1cc(CC23CCCN2C(=O)N(c2cc(Cl)nc(Cl)c2)C3=O)ccc1O` (stereo not drawn) [Example 197, 5-(3-Cyano-4-hydroxybenzyl)-3-(2,6-dichloro-4-pyridyl)-1,3-diazabicyclo[3.3.0]octane-2,4-dione], the melting point was 113.5 °C. Work on `O=C1N(c2cc(Cl)cc(Cl)c2)C(=O)C2(Cc3ccc(-c4cccc(CO)c4)cc3)CCCN12` (stereo not drawn) [Example 222, 5-[4-(3-Hydroxymethylphenyl)benzyl]-3-(3,5-dichlorophenyl)-1,3-diazabicyclo[3.3.0]octane-l2,4-dione] yielded a melting point of 77.1 °C. For `CC(O)c1cccc(-c2ccc(CC34CCCN3C(=O)N(c3cc(Cl)cc(Cl)c3)C4=O)cc2)c1` (stereo not drawn) [Example 223, 5-[4-[3-(!-Hydroxy)ethylphenyl]benzyl]-3-(3,5-dichlorophenyl)-1,3-diazabicyclo[3.3.0]octane-2,4-dione], the melting point was 66.5 °C. Molecule `COC(=O)/C=C/c1cccc(-c2ccc(CC34CCCN3C(=O)N(c3cc(Cl)cc(Cl)c3)C4=O)cc2)c1` (stereo not drawn) [Example 224, (E)-5-[4-[3-(2-Methoxycarbonyl)vinylphenyl]benzyl]-3-(3,5-dichlorophenyl)-1,3-diazabicyclo[3.3.0]octane-2,4-dione] has a melting point of 71.3 °C. With `CC(C)(C)OC(=O)c1c(Cl)cc(N2C(=O)N3CCCC3(Cc3ccc(Br)cc3)C2=O)cc1Cl` (stereo not drawn) [Example 225, 5-(4-Bromobenzyl)-3-[3,5-dichloro-4-(t-butoxycarbonyl)phenyl]-1,3-diazabicyclo[3.3.0]octane-2,4-dione] the melting point was 109 to 110 °C. `O=C(O)CNC(=O)c1c(Cl)cc(N2C(=O)N3CCCC3(Cc3ccc(Br)cc3)C2=O)cc1Cl` (stereo not drawn) [Example 227, 5-(4-Bromobenzyl)-3-[3,5-dichloro-4-(carboxymethylcarbamoyl)phenyl]-1,3-diazabicyclo[3.3.0]octane-2,4-dione] showed a melting point of 157 to 158 °C. Work on `NC(=O)C[C@H](NC(=O)c1c(Cl)cc(N2C(=O)N3CCCC3(Cc3ccc(Br)cc3)C2=O)cc1Cl)C(=O)O` (stereo partly drawn) [Example 229, 5-(4-Bromobenzyl)-3-(3,5-dichloro-4-L-asparaginocarbonylphenyl)-1,3-diazabicyclo[3.3.0]octane-2,4-dione] yielded a melting point of 172 °C. `O=C1N(c2cccc(Cl)c2)C(=O)C2(Cc3ccc(Br)cc3)CCCN12` (stereo not drawn) [Example 230] gave a melting point of 66 °C. With `CSc1cccc(N2C(=O)N3CCCC3(Cc3ccc(Br)cc3)C2=O)c1` (stereo not drawn) [Example 231] the melting point was 84.8 °C. Work on `O=C1N(c2cccc(C(F)(F)F)c2)C(=O)C2(Cc3ccc(Br)cc3)CCCN12` (stereo not drawn) [Example 233] yielded a melting point of 82.6 °C. In the case of `N#Cc1cccc(N2C(=O)N3CCCC3(Cc3ccc(Br)cc3)C2=O)c1` (stereo not drawn) [Example 234], the melting point is reported as 241 °C. Work on `COc1cc(OC)cc(N2C(=O)N3CCCC3(Cc3ccc(Br)cc3)C2=O)c1` (stereo not drawn) [Example 235] yielded a melting point of 154.8 °C. For `O=C(O)c1cc(C(=O)O)cc(N2C(=O)N3CCCC3(Cc3ccc(Br)cc3)C2=O)c1` (stereo not drawn) [Example 236], the melting point was 259 °C (dec.). With `CC(=O)c1cccc(N2C(=O)N3CCCC3(Cc3ccc(Br)cc3)C2=O)c1` (stereo not drawn) [Example 237] the melting point was 120.4 °C. Molecule `O=C1N(c2cccc(F)c2)C(=O)C2(Cc3ccc(Br)cc3)CCCN12` (stereo not drawn) [Example 238] has a melting point of 120.9 °C. With `O=C1N(c2cc(Cl)nc(Cl)c2)C(=O)C2(Cc3cccc([N+](=O)[O-])c3)CCCN12` (stereo not drawn) [Example 239, 5-(3-Nitrobenzyl)-3-(2,6-dichloro-4-pyridyl)-1,3-diazacyclo[3.3.0]octane-2,4-dione] the melting point was 182.8 °C. In the case of `N#Cc1ccc(CC23CCCN2C(=O)N(c2cc(Cl)cc(Cl)c2N)C3=O)cc1` (stereo not drawn) [Example 240, 5-(4-Cyanobenzyl)-3-(2-amino-3,5-dichlorophenyl)-1,3-diazabicyclo[3.3.0]octane-2,4-dione], the melting point is reported as 122.2 °C. `COC(=O)N[C@@H]1CN2C(=O)N(c3cc(Cl)nc(Cl)c3)C(=O)[C@@]2(Cc2ccc(OC(F)(F)F)cc2)C1` [Example 250, (5R, 7S)-5-[4-(Trifluoromethoxy)benzyl]-3-(2,6-dichloro-4-pyridyl)-7-methoxycarbonylamino-1,3-diazabicyclo[3.3.0]octane-2,4-dione] showed a melting point of 119.8 °C. `NCC(=O)N[C@@H]1CN2C(=O)N(c3cc(Cl)nc(Cl)c3)C(=O)[C@@]2(Cc2ccc(OC(F)(F)F)cc2)C1` [Example 252, (5R, 7S)-5-[4-(Trifluoromethoxy)benzyl]-3-(2,6-dichloro-4-pyridyl)-7-aminoacetylamino-1,3-diazabicyclo[3.3.0]octane-2,4-dione] gave a melting point of 114 °C. `CS(=O)(=O)NCC(=O)N[C@@H]1CN2C(=O)N(c3cc(Cl)nc(Cl)c3)C(=O)[C@@]2(Cc2ccc(OC(F)(F)F)cc2)C1` [Example 253, (5R, 7S)-5-[4-(Trifluoromethoxy)benzyl]-3-(2,6-dichloro-4-pyridyl)-7-[(methansulfonylaminoacetyl)amino]-1,3-diazabicyclo[3.3.0]octane-2,4-dione] gave a melting point of 104.9 °C. Work on `CS(=O)(=O)N[C@@H]1CN2C(=O)N(c3cc(Cl)nc(Cl)c3)C(=O)[C@@]2(Cc2ccc(OC(F)(F)F)cc2)C1` [Example 254, (5R, 7S)-5-[4-(Trifluoromethoxy)benzyl]-3-(2,6-dichloro-4-pyridyl)-7-methanesulfonylamino-1,3-diazabicyclo[3.3.0]octane-2,4-dione] yielded a melting point of 207.2 °C. `NC(=O)C(N)CC(=O)N[C@@H]1CN2C(=O)N(c3cc(Cl)nc(Cl)c3)C(=O)[C@@]2(Cc2ccc(OC(F)(F)F)cc2)C1` (stereo partly drawn) [Example 255, (5R, 7S)-5-[4-(Trifluoromethoxy)benzyl]-3-(2,6-dichloro-4-pyridyl)-7-[(3-carbamoyl-3-aminopropanoyl)amino]-1,3-diazabicyclo[3.3.0]octane-2,4-dione] gave a melting point of 107.8 °C. In the case of `CC(=O)NC(CC(=O)N[C@@H]1CN2C(=O)N(c3cc(Cl)nc(Cl)c3)C(=O)[C@@]2(Cc2ccc(OC(F)(F)F)cc2)C1)C(N)=O` (stereo partly drawn) [Example 256, (5R, 7S)-5-[4-(Trifluoromethoxy)benzyl]-3-(2,6-dichloro-4-pyridyl)-7-[(3-carbamoyl-3-acetylaminopropanoyl)amino]-1,3-diazabicyclo[3.3.0]octane-2,4-dione], the melting point is reported as 152.8 °C. For `O=C1N(c2cc(Cl)cc(Cl)c2)C(=O)C2(Cc3ccccc3)CCCN12` (stereo not drawn) [Example 267], the melting point was 173.8 °C. `NC1CN2C(=O)N(c3cc(Cl)nc(Cl)c3)C(=O)C2(Cc2ccc(OC(F)(F)F)cc2)C1` (stereo not drawn) [Example 281] showed a melting point of 123.5 °C. Work on `CC(=O)NC1CN2C(=O)N(c3cc(Cl)nc(Cl)c3)C(=O)C2(Cc2ccc(OC(F)(F)F)cc2)C1` (stereo not drawn) [Example 283] yielded a melting point of 122.7 °C. `CCCCC(=O)N[C@@H]1CN2C(=O)N(c3cc(Cl)nc(Cl)c3)C(=O)[C@@]2(Cc2ccc(OC(F)(F)F)cc2)C1` [Example 286, (5R, 7S)-5-[4-(Trifluoromethoxy)benzyl]-3-(2,6-dichloro-4-pyridyl)-7-valerylamino-1,3-diazabicyclo[3.3.0]octane-2,4-dione] showed a melting point of 66.8 °C. `NC(=O)N[C@@H]1CN2C(=O)N(c3cc(Cl)nc(Cl)c3)C(=O)[C@@]2(Cc2ccc(OC(F)(F)F)cc2)C1` [Example 287, (5R, 7S)-5-[4-(Trifluoromethoxy)benzyl]-3-(2,6-dichloro-4-pyridyl)-7-ureido-1,3-diazabicyclo[3.3.0]octane-2,4-dione] gave a melting point of 141.7 °C. `Cc1cc([C@H]2CN3C(=O)N(c4cc(Cl)nc(Cl)c4)C(=O)[C@]3(Cc3ccc(OC(F)(F)F)cc3)C2)c(C)[nH]1` [Example 288, (5R, 7S)-5-[4-(Trifluoromethoxy)benzyl]-3-(2,6-dichloro-4-pyridyl)-7-(2,5-dimethylpyrrolyl)-1,3-diazabicyclo[3.3.0]octane-2,4-dione] showed a melting point of 112.4 °C. `CC(=O)N[C@@H]1CN2C(=O)N(c3cc(Cl)cc(Cl)c3)C(=O)[C@]2(Cc2ccc(OC(F)(F)F)cc2)C1` [Example 291] showed a melting point of 61.2 °C. With `N[C@@H]1CN2C(=O)N(c3cc(Cl)cc(Cl)c3)C(=O)[C@@]2(Cc2ccc(OC(F)(F)F)cc2)C1` [Example 300, (5R, 7S)-5-[4-(Trifluoromethoxy)benzyl]-3-(3,5-dichlorophenyl)-7-amino-1,3-diazabicyclo[3.3.0]octane-2,4-dione] the melting point was 43.3 °C. With `CN(C)CCCC(=O)N[C@@H]1CN2C(=O)N(c3cc(Cl)cc(Cl)c3)C(=O)[C@@]2(Cc2ccc(OC(F)(F)F)cc2)C1` [Example 302, (5R, 7S)-5-[4-(Trifluoromethoxy)benzyl]-3-(3,5-dichlorophenyl)-7-[[4-(dimethylamino)butyryl]amino]-1,3-diazabicyclo[3.3.0]octane-2,4-dione] the melting point was 57.9 °C. Molecule `O=C1N(c2cc(Cl)cc(Cl)c2)C(=O)C2(Cc3ccc([S+]([O-])C(F)(F)F)cc3)CCCN12` (stereo not drawn) [Example 310] has a melting point of 63.5 °C. Molecule `O=C1N(c2cc(Cl)cc(Cl)c2)C(=O)C2(Cc3ccc(S(=O)(=O)C(F)(F)F)cc3)CCCN12` (stereo not drawn) [Example 311] has a melting point of 72.5 °C.
